Activity calls are given as the source filed them. The calls are words filed in the database; no cut-off is given here.
What was measured:
[1] = Inhibition of 6His-tagged RING1B (10 to 116 residues)/BMI1 (1 to 104 residues) (unknown origin) extracted from Escherichia coli BL21 (DE3) cells preincubated with compound for 1 hrs followed by 3-(1-(4,26-dioxo-30-((3aS,4S,6aR)-2-oxohexahydro-1H-thieno[3,4-d]imidazol-4-yl)-7,10,13,16,19,22-hexaoxa-3,25-diazatriacontyl)-6-methoxy-1H-indol-4-yl)-5-(6-fluoro-1H-indol-4-yl)-4-isopropyl-1H-pyrrole-2-carboxylic acid addition and measured after 1 hrs by Alphascreen competition assay; design: species or system Homo sapiens
[2] = Binding affinity to 15N-labeled RING1B (10 to 116 residues)/BMI1 (1 to 104 residues) (unknown origin) extracted from Escherichia coli BL21 (DE3) cells assessed as dissociation constant by NMR-based fragment screening analysis; design: species or system Homo sapiens
Homo sapiens [3] = organism: Homo sapiens; experiment: Binding affinity to 15N-labeled RING1B (10 to 116 residues)/BMI1 (1 to 104 residues) (unknown origin) extracted from Escherichia coli BL21 (DE3) cells assessed as ratio of chemical shift perturbations at 1:2 compound concentration ration by NMR binding analysis
[4] = (§1) Inhibition of RING1B (10 to 116 residues)-BMI1 (1 to 104 residues) (unknown origin) extracted from Escherichia coli BL21 (DE3) cells using HeLa nucleosome as substrate assessed as reduction in reduction in H2AK119 ubiquitination preincubated with compound for 1 hrs followed by flag-tagged ubiquitin and substrate addition and measured after 1 hrs by Western blot analysis; design: species or system Homo sapiens
Homo sapiens [5] = organism: Homo sapiens; experiment: as §1; settings: time 2.0 hrs
Homo sapiens [6] = organism: Homo sapiens; experiment: Binding affinity to 15N-labeled RING1B (10 to 116 residues)/BMI1 (1 to 104 residues) (unknown origin) extracted from Escherichia coli BL21 (DE3) cells assessed as sum of A79, G83 and T89 chemical shift perturbations at 200 uM by NMR binding analysis
Homo sapiens [7] = organism: Homo sapiens; experiment: Binding affinity to 15N-labeled RING1B (10 to 116 residues)/BMI1 (1 to 104 residues) (unknown origin) extracted from Escherichia coli BL21 (DE3) cells assessed as sum of A79, G83 and T89 chemical shift perturbations at 100 uM by NMR binding analysis
[8] = Inhibition of 6His-tagged RING1A (7 to 113 residues)-BMI1 (1 to 104 residues) (unknown origin) extracted from Escherichia coli BL21 (DE3) cells preincubated with compound for 1 hrs followed by 3-(1-(4,26-dioxo-30-((3aS,4S,6aR)-2-oxohexahydro-1H-thieno[3,4-d]imidazol-4-yl)-7,10,13,16,19,22-hexaoxa-3,25-diazatriacontyl)-6-methoxy-1H-indol-4-yl)-5-(6-fluoro-1H-indol-4-yl)-4-isopropyl-1H-pyrrole-2-carboxylic acid addition and measured after 1 hrs by Alphascreen competition assay; design: species or system Homo sapiens
[9] = Selectivity ratio of IC50 for inhibition of 6His-tagged RING1B (10 to 116 residues)-BMI1 (1 to 104 residues) (unknown origin) extracted from Escherichia coli BL21 (DE3) cells to IC50 for inhibition of 6His-tagged RING1A (7 to 113 residues)-BMI1 (1 to 104 residues) (unknown origin) extracted from Escherichia coli BL21 (DE3) cells
[10] = Binding affinity to RING1B (10 to 116 residues)/BMI1 (1 to 104 residues) (unknown origin) extracted from Escherichia coli BL21 (DE3) cells assessed as chemical shift perturbation for amide of Gly83 residue by measuring estimated dissociation constant by 1H-15N HSQC spectra based NMR titration analysis; design: species or system Homo sapiens
[11] = Binding affinity to RING1B (10 to 116 residues)/BMI1 (1 to 104 residues) (unknown origin) extracted from Escherichia coli BL21 (DE3) cells assessed as dissociation constant by ITC analysis; design: species or system Homo sapiens
Homo sapiens [12] = organism: Homo sapiens; experiment: Binding affinity to 15N-labeled RING1B (10 to 116 residues)/BMI1 (1 to 104 residues) (unknown origin) extracted from Escherichia coli BL21 (DE3) cells assessed as chemical shift perturbation for amide of Gly83 residue at 60 to 120 uM by 1H-15N HSQC spectra based NMR titration analysis; settings: dose 60-120 µM
Homo sapiens [13] = organism: Homo sapiens; experiment: Binding affinity to 15N-labeled RING1A (7 to 113 residues)/BMI1 (1 to 104 residues) (unknown origin) extracted from Escherichia coli BL21 (DE3) cells assessed as chemical shift perturbation for amide of Gly83 residue at 60 to 120 uM by 1H-15N HSQC spectra based NMR titration analysis; settings: dose 60-120 µM

| Structure (SMILES) | IC50 [1] [µM] | Ratio (Homo sapiens [3]) | Activity (Homo sapiens [6]) [Hz] | Activity (Homo sapiens [7]) [Hz] | other results |
| --- | --- | --- | --- | --- | --- |
| CCc1c(-c2cccc3[nH]ccc23)[nH]c(C(=O)O)c1-c1cccc2[nH]ccc12 | 13 | 0.63 | 163 | 102 | Kd [2]: 9 µM; IC50 [4]: 19.3 µM; inhibition (Homo sapiens [5]): Dose-dependent-effect; Inhibition Of E3 Ligase Activity Of Prc1 Observed |
| O=C(O)c1ccc(-c2ccccc2)[nH]1 | – | – | – | – | Kd [2]: 3600 µM |
| Cc1cc(-c2[nH]c(C(=O)O)c(-c3c(Cl)ccc4[nH]ccc34)c2C(C)C)c2cc[nH]c2c1 | 5.8 | – | – | – | IC50 [8]: 2.5 µM; Ratio IC50 [9]: 2 |
| CCc1c(-c2cccc3[nH]ccc23)[nH]c(C(=O)O)c1-c1ccccc1Cl | – | – | – | – | Kd [2]: 11.5 µM |
| Cc1cc(-c2c(C(=O)O)[nH]c(-c3cc(F)cc4[nH]ccc34)c2C(C)C)c2cc[nH]c2c1 | 4.8 | 0.82 | 319 | 261 | IC50 [8]: 2.6 µM; Ratio IC50 [9]: 2 |
| CC(CO)c1c(-c2cccc3[nH]ccc23)[nH]c(C(=O)O)c1-c1cccc2[nH]ccc12 (stereo not drawn) | 37.7 | 0.62 | 172 | 107 | – |
| CC(C)c1c(-c2cc(Cl)cc3[nH]ccc23)[nH]c(C(=O)O)c1-c1c(Cl)ccc2[nH]ccc12 | 5.3 | – | – | – | – |
| CC(C)c1c(-c2cc(F)cc3[nH]ccc23)[nH]c(C(=O)O)c1-c1cc(F)cc2[nH]ccc12 | 4.3 | 0.97 | 330 | 320 | – |
| Cc1cc(C(=O)O)[nH]c1-c1cccc2[nH]ccc12 | – | – | – | – | Kd [2]: 1400 µM |
| Cc1cc(-c2cccc3[nH]ccc23)[nH]c1C(=O)O | – | – | – | – | Kd [10]: 1100 µM |
| CC(CF)c1c(-c2cccc3[nH]ccc23)[nH]c(C(=O)O)c1-c1cccc2[nH]ccc12 (stereo not drawn) | 8 | 0.78 | 277 | 216 | – |
| CCC(C)c1c(-c2cccc3[nH]ccc23)[nH]c(C(=O)O)c1-c1cccc2[nH]ccc12 (stereo not drawn) | 5.6 | 0.92 | 291 | 268 | – |
| CC(C)c1c(-c2ccc3cc[nH]c3c2)[nH]c(C(=O)O)c1-c1c(Cl)ccc2[nH]ccc12 | 10.9 | – | – | – | – |
| CCc1c(C(=O)O)[nH]c(-c2cccc3[nH]ccc23)c1CC | – | – | – | – | Kd [10]: 250 µM |
| CCc1cc(-c2[nH]c(C(=O)O)c(-c3c(Cl)ccc4[nH]ccc34)c2C(C)C)c2cc[nH]c2c1 | 6.3 | – | – | – | – |
| O=C(O)c1[nH]c(-c2cccc3[nH]ccc23)c(C2CC2)c1-c1cccc2[nH]ccc12 | 15.8 | 0.65 | 211 | 138 | – |
| CCc1cc(-c2c(C(=O)O)[nH]c(-c3cc(F)cc4[nH]ccc34)c2C(C)C)c2cc[nH]c2c1 | 5.4 | 0.92 | 309 | 285 | IC50 [8]: 3.2 µM; Ratio IC50 [9]: 2 |
| CC(C)c1c(-c2cc(F)cc3[nH]ccc23)[nH]c(C(=O)O)c1-c1cc(C(F)(F)F)cc2[nH]ccc12 | 5.5 | 0.93 | 319 | 298 | – |
| CC(C)c1c(-c2cccc3[nH]c(C(=O)O)cc23)[nH]c(C(=O)O)c1-c1c(Cl)ccc2[nH]ccc12 | 2.2 | – | – | – | – |

| Structure (SMILES) | IC50 [1] [µM] | Ratio (Homo sapiens [3]) | Activity (Homo sapiens [6]) [Hz] | Activity (Homo sapiens [7]) [Hz] | other results |
| --- | --- | --- | --- | --- | --- |
| CC(c1c(-c2cccc3[nH]ccc23)[nH]c(C(=O)O)c1-c1cccc2[nH]ccc12)C(F)F (stereo not drawn) | 8.2 | 0.81 | 264 | 215 | IC50 [8]: 4.3 µM; Ratio IC50 [9]: 2 |
| CC(C)c1c(-c2cc(C(F)(F)F)cc3[nH]ccc23)[nH]c(C(=O)O)c1-c1c(Cl)ccc2[nH]ccc12 | 7.2 | – | – | – | IC50 [4]: 6.7 µM; inhibition (Homo sapiens [5]): Dose-dependent-effect; Inhibition Of E3 Ligase Activity Of Prc1 Observed |
| O=C(O)c1ccc(-c2cccc3[nH]ccc23)[nH]1 | – | – | – | – | Kd [10]: 2200 µM |
| CC(C)c1c(-c2ccc3[nH]ccc3c2)[nH]c(C(=O)O)c1-c1c(Cl)ccc2[nH]ccc12 | 4 | – | – | – | – |
| CC(C)c1c(-c2cccc3[nH]c(CO)cc23)[nH]c(C(=O)O)c1-c1c(Cl)ccc2[nH]ccc12 | 2 | – | – | – | – |
| CCc1c(-c2cccc3[nH]ccc23)[nH]c(C(=O)O)c1C1CCCCC1 | – | – | – | – | Kd [10]: 170 µM |
| CC(C)c1c(-c2cc(F)cc3[nH]ccc23)[nH]c(C(=O)O)c1-c1cc(Cl)cc2[nH]ccc12 | 2.8 | 0.92 | 305 | 280 | – |
| Cc1ccc2[nH]ccc2c1-c1[nH]c(C(=O)O)c(-c2c(Cl)ccc3[nH]ccc23)c1C(C)C | 5.1 | – | – | – | – |
| CC(C)c1c(-c2cccc3[nH]ccc23)[nH]c(C(=O)O)c1-c1cccc2[nH]ccc12 | 3.6 | 0.95 | 311 | 295 | Kd [11]: 6.5 µM |
| CC(C)c1c(-c2cc(F)cc3cc[nH]c23)[nH]c(C(=O)O)c1-c1c(Cl)ccc2[nH]ccc12 | 4.4 | – | – | – | – |
| COc1cc(-c2c(C(=O)O)[nH]c(-c3cc(F)cc4[nH]ccc34)c2C(C)C)c2ccn(CCNC(=O)CCOCCOCCOCCOCCOCCOCCNC(=O)CCCC[C@@H]3SC[C@@H]4NC(=O)N[C@@H]43)c2c1 | – | – | – | – | Activity (Homo sapiens [12]): Active; Activity (Homo sapiens [13]): Active |
| CC(C)c1c(-c2cccc3[nH]ccc23)[nH]c(C(=O)O)c1-c1c(Cl)ccc2[nH]ccc12 | 2.9 | – | – | – | – |
| CCOc1cc(-c2c(C(=O)O)[nH]c(-c3cc(F)cc4[nH]ccc34)c2C(C)C)c2cc[nH]c2c1 | 2.3 | 0.95 | 331 | 313 | – |
| COc1cc(-c2[nH]c(C(=O)O)c(-c3c(Cl)ccc4[nH]ccc34)c2C(C)C)c2cc[nH]c2c1 | 5 | – | – | – | – |
| COc1cc(-c2c(C(=O)O)[nH]c(-c3cc(F)cc4[nH]ccc34)c2C(C)C)c2cc[nH]c2c1 | 2.5 | 0.92 | 338 | 318 | – |
| O=C(O)c1ccc(-c2ccccc2)s1 | – | – | – | – | Kd [2]: 7000 µM |
| CCc1c(-c2cccc3[nH]ccc23)[nH]c(C(=O)O)c1-c1ccccc1 | – | – | – | – | Kd [10]: 30 µM |
| CC(C)c1c(-c2cc(F)cc3[nH]ccc23)[nH]c(C(=O)O)c1-c1cccc2[nH]ccc12 | 3.3 | 0.94 | 329 | 308 | Kd [11]: 4 µM |
